The target of assay [1] is T1, GzmB (Homo sapiens, UniProt P10144). Nature of the assay: Inhibition of Cell Detachment by GzmB Assay (Example D7). The assay is classed as cell-based. The note with it: 50 uM inhibitor; 100 nM GzmB; HDFa primary human fibroblasts; 7 hours; MTS absorbance 490 nm; read-out: Percent Inhibition of cell detachment at 50 uM. The protocol:
HDFa primary human fibroblasts were plated at 10 k/well in 200 ul, approximately 20 hrs before treatment. The next day, controls and 100 nM GzmB (recombinant, human) plus or minus inhibitor treatments were prepared in serum-free media. GzmB and inhibitor were incubated for 20 minutes at RT before adding to cells. Before addition, media and serum was removed from the cells and the cells were washed with PBS (1×), using pipettes to prevent disturbing the cells. Treatment preparations (100 ul) were added to the wells and incubated for 7 hours in a tissue culture incubator. After 7 hours, media and treatments were removed and the cells were washed with PBS (1×) to removed detached cells, using pipettes only. Phase pictures were taken then the PBS was removed and replaced with 100 uL of serum-free media and 20 uL of MTS and the cells were allowed to incubate for 3 hours in a cell culture incubator. After 3 hours the absorbance was read at 490 nm and a percent inhibition value for the treatments with inhibitors was determined from the control wells.

The target of assay [2] is T1, GzmB. In words: Inhibition of Fibronectin Cleavage by GzmB (Example D8). The settings on record: 20 nM granzyme B, Hilyte Fluor 488 labeled Fibronectin, 30° C.; for inhibition at 0.62 µM: 0.62 uM inhibitor, read-out: Percent Inhibition at Inhibitor Concentration 0.62 uM; for inhibition at 5.56 µM: 5.56 uM inhibitor, read-out: Percent Inhibition at Inhibitor Concentration 5.56 uM; for inhibition at 50 µM: 50 uM inhibitor, read-out: Percent Inhibition at Inhibitor Concentration 50 uM. It is filed as biochemical. The protocol: Black, 96 well high-binding assay plates (Griener Bio-one) were treated overnight at 4° C. with 40 uL of 8 ug/mL Hilyte Fluor 488 labeled Fibronectin (Cytoskeleton, Inc). After fibronectin coating, plates were washed 3 times in buffer (20 mM Tris-HCl, pH 7.4, 20 mM NaCl) then once with granzyme B assay buffer (50 mM HEPES, pH 7.5, 0.1% CHAPS). After washing, 50 uL of granzyme B assay buffer was added to each fibronectin-coated well. In a separate non-binding 96 well assay plate 5 uL of 20× inhibitor serial dilution stocks were added to 45 uL of 2.22× GzmB mix to establish inhibition (enzyme/inhibitor mixes were all prepared in granzyme B assay buffer and were incubated first at room temperature for 20 minutes, then at 30° C. for another 10 minutes). After incubation, 50 uL of this 2× enzyme/inhibitor mix was added to the corresponding coated well to initiate fibronectin cleavage (20 nM final granzyme B concentration, 8-point inhibitor dilution series starting at 50 uM). The assay was conducted at 30° C. in the TECAN plate reader (TECAN INFINITE® M1000 Pro), which was programmed to monitor the kinetic fluorescence polarization signal (filter set Ex/Em 470 nm/527 nm) with readings taken every minute, for 1 hour. Proteolytic activity was evaluated as the rate of fluorescence enhancement in the parallel emission over the linear range of the reaction. % Inhibition values were calculated from assay controls and the resulting date is shown in Table 7.

T1 sequence (P10144 21-247): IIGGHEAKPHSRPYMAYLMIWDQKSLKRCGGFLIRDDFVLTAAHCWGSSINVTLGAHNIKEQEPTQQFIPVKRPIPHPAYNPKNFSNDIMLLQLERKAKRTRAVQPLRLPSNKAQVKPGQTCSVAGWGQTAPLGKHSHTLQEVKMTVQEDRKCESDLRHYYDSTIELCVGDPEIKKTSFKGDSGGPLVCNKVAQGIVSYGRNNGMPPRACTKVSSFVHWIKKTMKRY

Regarding `CC(C)C(NC(=O)CCC(=O)O)c1ccc(C(=O)NCC(=O)NCc2nn[nH]n2)[nH]1` (racemic) [Compound C3, 3-{[2-methyl-1-[5-({[(2H-1,2,3,4-tetrazol-5-ylmethyl)carbamoyl]methyl}carbamoyl)-1H-pyrrol-2-yl]propyl]carbamoyl}propanoic acid], the inhibition at 50 µM in assay [1] stood at 91%.
In the case of `CC(C)C(NC(=O)CCC(=O)O)c1ccc(C(=O)N2CCC[C@H]2C(=O)NCc2nn[nH]n2)[nH]1` (mixture of isomers) [Compound C4, 3-{[2-methyl-1-{5-[(2S)-2-[(2H-1,2,3,4-tetrazol-5-ylmethyl)carbamoyl]pyrrolidine-1-carbonyl]-1H-pyrrol-2-yl}propyl]carbamoyl}propanoic acid], in assay [2], the inhibition at 0.62 µM worked out at 28%, the inhibition at 5.56 µM was 56% and the inhibition at 50 µM stood at 78%.
The matching figures for `O=C(O)CCC(=O)NC(c1ccc(C(=O)N2C[C@@H](O)C[C@H]2C(=O)NCc2nn[nH]n2)[nH]1)C1CCCC1` (stereo partly drawn) [Compound C8, 3-{[cyclopentyl({5-[(2S,4S)-4-hydroxy-2-[(2H-1,2,3,4-tetrazol-5-ylmethyl)carbamoyl]pyrrolidine-1-carbonyl]-1H-pyrrol-2-yl})methyl]carbamoyl}propanoic acid]: 63%, 83% and 94%.

These data come from patent US9458138B1, “Pyrrole compounds as granzyme B inhibitors” (viDA Therapeutics Inc., priority 2014, dated 2016).
